Columns and labels:
[1] = test system: JAK2 in irf-bla TF-1 cells; assay: GeneBLAzer reporter assay in irf-bla TF-1 cells; type: cell-based
Experimental: The effect of Compound A in a cellular system was measured using irf-bla TF-1 cells (JAK2) and Ba/F3 (JAK3) cells. These cells were not tested for the presence of JAK1 and TYK2. IC50 values are reported as the average±standard deviation of at least 4 independent determinations.

CIA model, body mass = type: in vivo, female DBA/1 mice
Experimental: FIGS. 9A and 9B: Depict the effect of treatment on body mass and serum anti-CII autoantibody concentration in a CIA model.
Female DBA/1 mice were injected with purified collagen type II in CFA i.d. (intradermal) then boosted with collagen type II in IFA s.c. (subcutaneous) on day 21 followed by a day 28 LPS injection i.p. (intraperitoneal) to induce arthritis (CIA). Mice that scored a ‘1’ or better for each paw were considered arthritic and entered into the study, treatments started after several days of full arthritis. Compound A was provided orally, b.i.d., for each dose tested; Dex was provided i.p. at 1.5 mg/kg three times a week; vehicle (PEG400+1% DMSO) was provided orally, b.i.d.

[2] = test system: collagen-induced arthritis (CIA); assay: Collagen-induced arthritis (CIA) model, paw size and clinical score; type: in vivo, female DBA/1 mice
Experimental: (§1) Female DBA/1 mice were injected with purified collagen type II in CFA i.d. (intradermal), then boosted with collagen type II in IFA, s.c., (subcutaneous) on day 21 followed by a day 28 LPS injection i.p. to induce arthritis (CIA). Mice that scored a ‘1’ or better for each paw were considered arthritic and entered into the study. Treatments started after 7-10 days of arthritis induction. Compound A was provided orally, b.i.d., for all doses tested; Dex was administered i.p. at 1.5 mg/kg, three times a week; and vehicle (PEG400+1% DMSO) was provided orally, b.i.d.
Compound A was then tested in a more physiologic and progressive disease model of RA (i.e., collagen-induced arthritis (CIA) model). […] Early model optimization studies consistently generated robust collagen-induced-arthritis phenotypes that were absent from control treated, non-diseased, animals. CIA arthritic animals were separated into groups and treated with Compound A at 30, 55 and 100 mg/kg doses b.i.d, p.o.; vehicle or the standard-of-care reference drug, Dex at 1.5 mg/kg, which were administered as described above. […] The faster onset of swelling reduction noted for the 100 mg/kg treatment group may be explained by differences in the mechanism of action of Compound A.
Acclimated mice were randomized and pre-bled and measured for baseline inflammation before any studies were initiated. On day 0, DBA/1 female mice were given a primary immunization with equal volumes of bovine type II collagen (CII), 2 mg/ml stock in 0.05 M acetic acid, (Chrondrex, Redmond, Wash.) suspended in CFA, 5 mg/ml (Chondrex, Redmond, Wash.) emulsion yielding an injection of 100 μg of CII at 100 μl into the base of the tail intradermally (i.d.). At day 21 post primary immunization, mice were re-challenged with CII emulsified in Incomplete Freund's Adjuvant (IFA) (Thermo Scientific, Rockford, Ill.) s.c. on the flank of the mouse. On day 28 each mouse received an i.p. injection of E. coli 0111:B4 LPS (0.5 mg/ml stock) (Chondrex, Redmond, Wash.) at 10 μg in 100 μl of saline (25-50 μg of LPS was reduced to 10 μg per mouse to reduce mortality associated with endotoxic shock). Around day 35 the mice begin to show signs of paw inflammation and disease. Before starting treatment mice were randomized, grouped, scored, ear tagged and pre-bled to determine baseline disease. […] Arthritis clinical scores were the same as that used to score the CAIA model (see CAIA methods). Vehicle consisted of PEG400 plus 1% DMSO given orally, twice daily (b.i.d). […] All samples were kept at −80° C. until ready to assay. At about day 60 mice were harvested for spleen, plasma and arthritic paws for STAT and cytokine quantitation and histological analysis.

EGFR = EGFR (Homo sapiens, UniProt P00533); assay: Kinase profiling panel, EGFR; type: binding; conditions: 1 μM
EGFR, sequence (P00533 25-1210, species assumed): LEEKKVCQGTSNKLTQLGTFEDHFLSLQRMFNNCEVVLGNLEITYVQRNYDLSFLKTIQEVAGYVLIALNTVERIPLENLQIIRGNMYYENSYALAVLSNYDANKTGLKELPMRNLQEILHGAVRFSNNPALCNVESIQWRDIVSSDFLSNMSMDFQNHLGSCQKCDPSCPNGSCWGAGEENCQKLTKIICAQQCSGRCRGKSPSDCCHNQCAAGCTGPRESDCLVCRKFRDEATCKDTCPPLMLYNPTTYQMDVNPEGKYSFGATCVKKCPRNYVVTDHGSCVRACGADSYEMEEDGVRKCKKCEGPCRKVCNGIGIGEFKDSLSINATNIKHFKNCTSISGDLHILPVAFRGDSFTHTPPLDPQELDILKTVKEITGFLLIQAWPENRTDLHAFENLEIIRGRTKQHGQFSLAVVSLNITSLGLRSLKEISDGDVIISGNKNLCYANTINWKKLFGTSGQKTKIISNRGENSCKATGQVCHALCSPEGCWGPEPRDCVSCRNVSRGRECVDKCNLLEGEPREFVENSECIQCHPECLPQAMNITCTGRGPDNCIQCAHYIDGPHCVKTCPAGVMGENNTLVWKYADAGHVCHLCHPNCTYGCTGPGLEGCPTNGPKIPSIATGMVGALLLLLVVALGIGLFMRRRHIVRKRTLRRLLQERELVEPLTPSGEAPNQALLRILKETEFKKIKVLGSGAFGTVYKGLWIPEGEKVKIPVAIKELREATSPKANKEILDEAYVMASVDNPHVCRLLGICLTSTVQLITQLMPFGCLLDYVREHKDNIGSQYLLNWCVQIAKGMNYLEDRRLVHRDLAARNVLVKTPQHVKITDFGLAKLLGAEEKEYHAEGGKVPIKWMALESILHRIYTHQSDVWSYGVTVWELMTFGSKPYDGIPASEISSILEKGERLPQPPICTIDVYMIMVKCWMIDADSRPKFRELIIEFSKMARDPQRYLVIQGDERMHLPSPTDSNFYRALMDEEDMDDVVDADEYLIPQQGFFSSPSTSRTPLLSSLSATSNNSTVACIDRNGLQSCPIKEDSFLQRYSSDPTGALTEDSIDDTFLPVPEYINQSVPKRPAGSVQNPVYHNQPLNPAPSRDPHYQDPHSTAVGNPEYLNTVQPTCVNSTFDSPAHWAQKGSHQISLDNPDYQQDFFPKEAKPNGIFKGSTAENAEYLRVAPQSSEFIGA
Experimental: The ability of Compound A to inhibit other members of the kinome was also assessed using binding assays for a panel of 402 kinases [25].

phospho-STAT3 [3] = assay: CIA model, paw phospho-STAT3; type: in vivo, female DBA/1 mice
Experimental: as §1
FIG. 4B: Depicts Phospho-STAT3 expression in arthritic paws for each treatment group.
A more detailed description of this method can be found described elsewhere (Lu et al, 2010, submitted for publication). Briefly, the front (including carpus) and back (including tarsus) right paws were collected and frozen in dry-ice cooled isopentane and stored at −80° C. until use. The paws were cut to 2 mm×2 mm segments and kept on dry-ice in round bottom polypropylene tubes. […] Protein concentration was measured using a BCA protein assay (Pierce, Rockford, Ill.) and adjusted to 3 mg/ml. […]

human JAK2 = human JAK2 (Homo sapiens, UniProt O60674); conditions: read-out: IC50, JAK2 kinase, isolated human enzyme; average±standard deviation of at least 4 determinations; 0.2 μM ATP
human JAK2, sequence (O60674 whole entry): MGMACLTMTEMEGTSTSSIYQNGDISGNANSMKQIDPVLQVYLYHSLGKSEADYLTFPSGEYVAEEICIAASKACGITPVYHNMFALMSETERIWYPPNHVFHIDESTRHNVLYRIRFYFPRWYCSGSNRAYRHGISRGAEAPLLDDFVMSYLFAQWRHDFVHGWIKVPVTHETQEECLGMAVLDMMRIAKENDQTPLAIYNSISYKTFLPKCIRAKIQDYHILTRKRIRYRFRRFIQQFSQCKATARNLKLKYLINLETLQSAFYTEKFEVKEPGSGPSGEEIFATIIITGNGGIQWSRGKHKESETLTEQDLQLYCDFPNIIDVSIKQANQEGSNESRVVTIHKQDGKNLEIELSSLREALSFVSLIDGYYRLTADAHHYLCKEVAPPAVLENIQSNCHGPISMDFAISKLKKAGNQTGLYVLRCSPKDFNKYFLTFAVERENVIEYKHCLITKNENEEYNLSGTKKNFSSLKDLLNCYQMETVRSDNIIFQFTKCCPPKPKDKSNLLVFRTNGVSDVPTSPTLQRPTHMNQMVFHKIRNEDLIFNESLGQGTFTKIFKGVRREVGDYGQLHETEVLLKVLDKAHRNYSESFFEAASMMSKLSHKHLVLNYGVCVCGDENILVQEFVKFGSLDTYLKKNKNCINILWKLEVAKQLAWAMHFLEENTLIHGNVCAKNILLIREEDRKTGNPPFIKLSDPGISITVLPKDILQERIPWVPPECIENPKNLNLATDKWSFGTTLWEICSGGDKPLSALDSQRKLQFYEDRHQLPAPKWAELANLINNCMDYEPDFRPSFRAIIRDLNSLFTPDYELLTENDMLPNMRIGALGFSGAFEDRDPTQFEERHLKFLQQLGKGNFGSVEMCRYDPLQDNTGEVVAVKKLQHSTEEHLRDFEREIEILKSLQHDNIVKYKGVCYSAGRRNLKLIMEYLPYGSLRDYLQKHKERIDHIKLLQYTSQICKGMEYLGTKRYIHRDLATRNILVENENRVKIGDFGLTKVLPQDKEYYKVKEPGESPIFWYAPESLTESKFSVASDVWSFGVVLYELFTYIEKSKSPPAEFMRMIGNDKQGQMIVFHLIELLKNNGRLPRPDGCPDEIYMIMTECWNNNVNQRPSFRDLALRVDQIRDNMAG
Experimental: IC50 values are reported as the average±standard deviation of at least 4 independent determinations.
(§2) The kinase activity of baculovirus-expressed human JAK kinases (JAK1, JAK2, JAK3 or TYK2) was measured using the time-resolved fluorescence (TRF) detection system as described elsewhere [17]. Each 96-well Costar high binding plate (Corning, Corning, N.Y.) was coated with 100 μl/well of 10 μg/ml neutravidin (Pierce Biotechnology, Rockford, Ill.) in TBS at 37° C. for 2 h, followed by 100 μl/well of 1 μg/ml 15-mer peptide substrate (biotinyl-amino-hexanoyl-[sequence]-amide, Infinity Biotech Research and Resource, Aston, Pa.) at 37° C. for 1 h. The kinase assay mixture (total volume=100 μl/well) consisting of 20 mM HEPES (pH 7.2), ATP (Km level for each kinase), 1 mM MnCl2, 0.1% BSA, and test Compound (diluted in DMSO; 2.5% DMSO final in assay) was added to the assay plate. The concentrations of ATP used were as follows: 0.2 μM ATP for JAK1, JAK2 and TYK2; 0.1 μM ATP for JAK3. Enzyme was added and the reaction was allowed to proceed for 20 min at RT. […] Plates were agitated for 10 min and the fluorescence of the resulting solution measured using the PerkinElmer EnVision® 2102 or 2104 multi-label plate reader. IC50 values were determined using the 4-parameter logistic model in XLFit® 4 (IDBS, Ltd., Guildford, UK).

human TYK2 = human TYK2 (Homo sapiens, UniProt P29597); assay: TYK2 kinase enzyme assay, TRF detection; type: biochemical; conditions: relative to JAK2
human TYK2, sequence (P29597 whole entry): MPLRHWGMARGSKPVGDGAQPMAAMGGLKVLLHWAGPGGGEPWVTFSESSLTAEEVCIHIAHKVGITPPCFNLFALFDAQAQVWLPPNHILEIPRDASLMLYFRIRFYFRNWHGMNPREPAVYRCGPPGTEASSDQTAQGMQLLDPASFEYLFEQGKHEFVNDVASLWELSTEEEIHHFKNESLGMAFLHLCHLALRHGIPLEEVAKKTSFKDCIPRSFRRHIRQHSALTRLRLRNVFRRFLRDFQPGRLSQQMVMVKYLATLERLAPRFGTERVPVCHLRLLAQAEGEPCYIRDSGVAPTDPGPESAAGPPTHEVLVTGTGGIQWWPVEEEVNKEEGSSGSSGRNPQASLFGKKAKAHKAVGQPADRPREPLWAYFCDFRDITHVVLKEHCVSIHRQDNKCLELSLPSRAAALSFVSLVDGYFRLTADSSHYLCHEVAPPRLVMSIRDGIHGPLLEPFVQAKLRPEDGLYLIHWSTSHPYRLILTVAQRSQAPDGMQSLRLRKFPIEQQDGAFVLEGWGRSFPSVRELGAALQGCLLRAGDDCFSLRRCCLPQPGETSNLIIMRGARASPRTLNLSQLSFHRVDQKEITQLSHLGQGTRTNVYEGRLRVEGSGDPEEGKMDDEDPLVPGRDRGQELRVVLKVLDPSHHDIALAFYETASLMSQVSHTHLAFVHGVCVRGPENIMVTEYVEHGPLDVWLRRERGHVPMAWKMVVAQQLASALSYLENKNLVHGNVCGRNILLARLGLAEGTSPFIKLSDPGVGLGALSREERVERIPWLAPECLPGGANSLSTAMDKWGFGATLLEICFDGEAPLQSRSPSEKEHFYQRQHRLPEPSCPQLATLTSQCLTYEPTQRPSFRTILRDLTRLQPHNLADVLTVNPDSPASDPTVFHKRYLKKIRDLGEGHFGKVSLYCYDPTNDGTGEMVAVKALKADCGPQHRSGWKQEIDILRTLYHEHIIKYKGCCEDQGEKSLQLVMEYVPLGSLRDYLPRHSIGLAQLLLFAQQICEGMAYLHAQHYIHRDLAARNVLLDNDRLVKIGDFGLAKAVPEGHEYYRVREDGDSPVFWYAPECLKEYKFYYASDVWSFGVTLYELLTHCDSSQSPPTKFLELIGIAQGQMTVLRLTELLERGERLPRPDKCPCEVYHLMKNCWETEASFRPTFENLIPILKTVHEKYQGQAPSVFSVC
Experimental: as §2

phospho-STAT3 [4] = assay: CAIA model, paw phospho-STAT3 (Luminex bead assay); type: in vivo, female DBA/1 mice; conditions: for reduction in paw pSTAT3 compared with Dex: within 24 hours of treatment (day 6-7); for phospho-STAT3 levels in the paw: 55 mg/kg
Experimental: DBA/1 female mice were injected i.v. with purified anti-collagen type II antibodies, then given 25 μg of LPS i.p. three days later to induce arthritis by day 5. Mice that met the arthritis criteria score of 1 per paw were entered into the study. Compound A was provided orally, b.i.d., for all doses tested; Dex was provided at 1.5 mg/kg three times a week, i.p.; and vehicle (PEG400+1% DMSO) was provided orally.
The graphed data was generated using Luminex® bead kits, concentration in units per ml per 3 mg of total protein as determined by the BSA assay. The graphed data represents mean±SEM, statistics were performed using 2-way ANOVA analysis.
To investigate the effect of Compound A on levels of phosphorylated STATs and cytokines in the paws of treated mice, a method was developed whereby synovial fluid and cellular joint extracts could be obtained from the paws and ankles of diseased animals for analysis using multiplex bead arrays [32]. […] Consequently, multiplex analysis was used as the primary method of measuring phosphorylated STATs for all experiments described herein.
Briefly, the front (including carpus) and back (including tarsus) right paws were collected and frozen in dry-ice cooled isopentane and stored at −80° C. until use. The paws were cut to 2 mm×2 mm segments and kept on dry-ice in round bottom polypropylene tubes. Seven hundred microliters tissue extraction buffer containing protease inhibitor cocktail (Calbiochem, San Diego, Calif.) and Halt phosphatase inhibitor cocktail (Thermo Scientific, Rockford, Ill.) or Roche phosphatase inhibitor cocktail (Roche, Indianapolis, Ind.) in tissue extraction reagent I (Invitrogen, Carlesbad, Calif.) were added to each sample. Samples were homogenized frozen using a PT 10-35 Polytron homogenizer. After homogenization, samples were centrifuged at 4° C. for 2000×g for 10 minutes and supernatants re-centrifuged at 4° C. at maximum speed, 14,000×g, for 15 minutes. Supernatants were carefully removed to avoid picking up the top layer of lipids/adipose debris. Protein concentration was measured using a BCA protein assay (Pierce, Rockford, Ill.) and adjusted to 3 mg/ml. A minimum of 25 μl of this extraction was used in the above described protocol using the mouse cytokine 10-plex bead kit (Invitrogen, Carlsbad, Calif.) or phosphorylated STAT1, 3, 5a/b, 3-plex kit (Invitrogen, Carlsbad, Calif.).

[5] = test system: collagen-antibody-induced arthritis (CAIA); assay: Collagen-antibody-induced arthritis (CAIA) model, paw size and clinical score; type: in vivo, female DBA/1 mice; conditions: 55 mg/kg p.o. b.i.d., day 13
Experimental: Female DBA/1 mice were injected i.v. (intravenous) with purified anti-collagen type II antibodies, then given 25 μg of LPS (lipopolysaccharide), i.p. (intraperitoneal), three days later to induce arthritis by day 5. Mice that met the arthritis criteria score of 1 per paw were entered into the study. Compound A was administered orally, b.i.d. (twice daily), for all doses tested; Dex (Dexamethasone) was administered at 1.5 mg/kg three times a week, i.p.; and vehicle (PEG400+1% DMSO) was administered orally.
Anti-collagen type II antibody was delivered to mice i.v. and oral administration of Compound A was initiated upon meeting minimum score requirements and entry into dosage groups. Compound A was administered at 10, 30 or 55 mg/kg p.o. twice daily for two weeks total. Vehicle groups were treated with PEG400 in 1% DMSO; dexamethasone (Dex) was used as a glucocorticoid standard of care reference. Dex was given i.p. in saline alone, three times a week (every 48 hours) at 1.5 mg/kg of total body mass.
Acclimated mice were randomized, pre-bled and measured for baseline inflammation before any studies were initiated. On day 0, DBA/1 female mice were injected i.v. with 100 μl of a saline solution containing 1.5 mg of a 10 mg/ml cocktail of arthritogenic monoclonal antibodies directed against different epitopes of collagen type II (Chondrex, Redmond, Wash.) suspended in saline. […]

[6] = CIA, 30, 55 and 100 mg/kg b.i.d. p.o.

CN1CCN(c2cccc(Nc3nc4c(-c5ccc(S(C)(=O)=O)cc5)cccn4n3)c2)CC1 [Compound A, [8-(4-Methanesulfonyl-phenyl)-[1,2,4]triazolo[1,5-a]pyridin-2-yl]-[3-(4-methyl-piperazin-1-yl)-phenyl]-amine]
inhibition of JAK2, reporter assay [1]: inhibits JAK2 in irf-bla TF-1 cells | body mass (CIA model, body mass): did not significantly change | suppression of paw swelling versus Dex ([2]; CIA, 100 mg/kg): near identical suppression of paw swelling | onset of swelling reduction versus Dex ([2]; CIA, 100 mg/kg, day 43): more rapid drop in swelling as compared to the Dex treatment group | clinical score [2, 6]: reduction in clinical score in a dose-dependent manner | mean paw size [2, 6]: clear reduction in the mean paw size | activity against EGFR in profiling panel (EGFR): lacked activity | paw pSTAT3 (phospho-STAT3 [3]; 55 mg/kg, p<0.01): significantly reduced | paw pSTAT3 (phospho-STAT3 [3]; 100 mg/kg, p<0.001): significantly reduced | IC50 (human JAK2): 1.8 ± 0.6 nM | selectivity against TYK2 (human TYK2): > 800 fold | reduction in paw pSTAT3 compared with Dex (phospho-STAT3 [4]; 30 mg/kg b.i.d., p<0.01 vs vehicle): significantly greater than that of Dex | reduction in paw pSTAT3 compared with Dex (phospho-STAT3 [4]; 55 mg/kg b.i.d., p<0.001 vs vehicle): significantly greater than that of Dex | phospho-STAT3 levels in the paw (phospho-STAT3 [4]; 2 hours after administration): nearly abolished | phospho-STAT3 levels in the paw (phospho-STAT3 [4]; 6 hours post-administration): only slowly began to recover | paw pSTAT3 expression, remainder of the experiment (phospho-STAT3 [4]; b.i.d. treatment): reduced pSTAT3 expression to the lower limits of the assay | drop in mean paw thickness or size compared to vehicle [5]: 1.3 fold | reduction in total clinical score compared to vehicle [5]: 2.4 fold

Reference: patent US9034876B2, “Treatment of chronic inflammation with a 1,2,4-triazolo [1,5a] pyridine derivative” (Cephalon, Inc., priority 2010, dated 2015)
